{"source": "paper PMC7139549", "about": "“TLD1433 Photosensitizer Inhibits Conjunctival Melanoma Cells in Zebrafish Ectopic and Orthotopic Tumour Models” (Cancers, 2020)", "key": {"[1]": {"system": "CM engrafted zebrafish embryos", "test": "Maximum tolerated dose in CM engrafted zebrafish embryos (ectopic and orthotopic model)", "type": "in vivo, Zebrafish (Danio rerio)", "conditions": "light-activated", "protocol": "To engage both CM models for testing the efficacy of TLD1433 as a potential new PDT treatment strategy to combat CM growth, first, the MTD of TLD1433 delivered into zebrafish embryos engrafted with CM cells was measured (Table 2) following the same procedure as already described for wild type embryos (Figure 5 and Table 2). Engrafted embryos were more sensitive to light-activated TLD1433 than non-engrafted embryos (Table 2). MTD concentrations of 4.6 nM and 2.3 mM were delivered by WA, IV and RO administration. […] The TLD1433 concentration in these experiments was not increased further as the initial treatment was already at the pre-determined MTD.\nFor determining the MTD of the WA of the TLD1433 solution in wild type zebrafish, solutions of 2.3 nM, 4.6 nM, 9.2 nM, 11.5 nM, 23 nM were made before the experiment. At 2.5, 3.5, 4.5, 5.5 dpf, TLD1433 was added to the fish water and maintained for 12 h. At 3, 4, 5, 6 dpf, the fish water was refreshed and after 1 h, embryos were exposed to green light for 90 min (520 nm, 21 mW/cm^2, 114 J/cm^2). For the IV and RO administration, TLD1433 solutions (1.15 mM, 2.3 mM, 4.6 mM, 9.2 mM, 11.5 mM) were prepared before the experiment. At 3, 4, 5, 6 dpf, 1nL of TLD1433 was injected via the dorsal vein or the RO site and maintained for 1 h. After each of the 4 injections, the embryos were exposed to green light for 90 min (520 nm, 21 mW/cm^2, 114 J/cm^2). The images of treated and wild type embryos at 6 dpf were taken using a DFC420C camera coupled to a Leica MZ16FA fluorescence microscope. In order to determine the MTD of tumour cell bearing zebrafish, TLD1433 was performed according to the same procedure, delivered by WA, IV and […] administration as described above for the wild type embryos."}, "[2]": {"system": "OMM2.5 uveal melanoma cell line", "test": "SRB cell viability assay, OMM2.5", "type": "cell-based, Human", "protocol": "TLD1433 is known to generate reactive oxygen species (ROS) with high quantum efficacy in many cancer cell lines. However, there is no report of the in vitro toxicity of this compound in eye melanoma (UM) cell lines. We determined the cell viability of three conjunctival melanoma cell lines (CRMM1, CRMM2 and CM2005.1), and three uveal melanoma cell lines (OMM1, OMM2.5, MEL270) in the presence of TLD1433, both in the dark or under green light irradiation (21 mW/cm^2, 19 J/cm^2, 520 nm, 15 min), and compared this viability to epidermoid carcinoma A431 and cutaneous melanoma A375 cell lines under the same conditions. The protocol used was based on previous work from the Bonnet group, and differed slightly from recommendations from McFarland et al.. […] The effective concentration (EC50) values, i.e., the concentration required to reduce cell viability by 50% compared to untreated wells, were assessed by fitting the dose-response curves with a Hill equation. The phototoxicity index (PI), defined as the ratio of the dark EC50 to the light EC50, was also calculated and represents the amplification of TLD1433 activity with a light trigger. […]\nFigure 2 Cell viability after TLD1433 treatment of eight tumour cell lines (CRMM1, CRMM2, CM2005.1, OMM1, OMM2.5, MEL270, A431, A375). […] The absorbance of Sulforhodamine B in solution was measured at 520 nm. […]\nAt day 0, cells were detached using 1mL of trypsin, resuspended in 4 mL of media and transferred to a 15 mL corning falcon tube. Cells were counted using trypan blue and BioRad® TC20™ automated cell counter (Figure 11). Dilutions of 6000 (CRMM1), 6000 (CRMM2), 8000 (CM2005.1), 6000 (OMM1), 6000 (OMM2.5), 6000 (MEL270) 8000 (A431), and 4000 (A375) cells/well were calculated from each cell suspension at a final volume of 6 mL using the following formula: Vc=(Vt×10C)/Lc where Vt = total volume of solution, C = number of cells per well/per 100 μL and Lc = live cells count (cells/mL). […] Next day, the dye was dissolved using Tri-base (0.25%) and absorbance of SRB at 510 nm was recorded from each well using a Tecan plate reader. […]"}}, "note": "Like-named read-outs stand apart in the source and are kept apart here."}
{"smiles": "Cc1ccnc(-c2cc(C)ccn2)c1.Cc1ccnc(-c2cc(C)ccn2)c1.[Cl-].[Cl-].[Ru+2].c1csc(-c2ccc(-c3ccc(-c4nc5c6cccnc6c6ncccc6c5[nH]4)s3)s2)c1", "note": "[TLD1433]", "values": [{"measurement": "Maximum Tolerated Dose (MTD)", "setting": "[1]; Intravenous 1 nL", "value": 2.3, "unit": "mM"}, {"measurement": "Maximum Tolerated Dose (MTD)", "setting": "[1]; Retro-orbital 1 nL", "value": 2.3, "unit": "mM"}, {"measurement": "Maximum Tolerated Dose (MTD)", "setting": "[1]; Water administration", "value": "4.6e-06", "unit": "mM"}, {"measurement": "EC50", "setting": "[2]; OMM2.5, dark, 24 h treatment, SRB, read-out: EC50, dark", "value": 640, "unit": "nM"}, {"measurement": "EC50", "setting": "[2]; OMM2.5, green light 520 nm, 15 min, 21 mW/cm^2, 19 J.cm^−2, DLI 24 h, read-out: EC50,light", "value": 13, "unit": "nM"}, {"measurement": "PI (photo index)", "setting": "[2]; OMM2.5, ratio of dark and light EC50, 19 J.cm^−2 green light", "value": 49}]}
